Reference: patent publication US12714698B2, “Compositions and methods for treating or preventing dermal disorders” (Drexel University, priority 2015, dated 2026)
Entries after “also recorded” stand apart in the source; their conditions may differ.

Experiments:
[1] = system: human cardiac fibroblasts; test: Mitochondrial respiration, Seahorse XF24 Bioanalyzer; type: cell-based
Procedure: Cell culture experiments utilizing NRTIs were of the following design. Cultures of either human lung or cardiac fibroblasts were cultivated according to standard culture protocols for these cells (Cristofalo, et al., Journal of Tissue Culture Methods 1980, 6:117-121). Parallel sets of cultures were maintained in normal growth media or in normal growth media with the addition of 1 nM rapamycin. Cultures were maintained with 1 nM rapamycin (Enzo Biologicals) for two weeks before exposure to NRTIs. […] Mitochondrial measurements, bioanalyzer measurements, immunoblotting for protein expression and phosphorylation status, and assays for senescence were performed at the end of this 7-day period. Mitochondrial function was measured using the XF cell mito stress test kit on a Seahorse XF24 Bioanalyzer (Seahorse Bioscience). Cells were seeded at a density of 15,000 cells per well in an XF24 microplate. Following acquisition, results were normalized based upon 10^6 cells counted using a Guava EasyCyte Mini (Millipore), where applicable. […] Respiration rates and proton leak were assessed as outlined in published methods (Hill, et al., Biological chemistry 2012, 393:1485-1512). Mitochondrial respiration was calculated based upon oxygen consumption rate measurements in triplicates from cells seeded in at least quadruplicates. Basal respiration represents the initial oxygen consumption rate measurements and maximal respiration represents the oxygen consumption rate measurements following FCCP addition. ATP-linked respiration is represented as the oligomycin-sensitive oxygen change to basal oxygen consumption rate. Proton leak represents the oligmycin insensitive oxygen consumption rate. […] All data was normalized to cell number by counting cells in each well at the completion of the mitochondrial assessments.

Lung fibroblasts = test: Senescence markers in lung fibroblasts exposed to NRTIs; type: cell-based, human
Procedure: (§1) Cell culture experiments utilizing NRTIs were of the following design. Cultures of either human lung or cardiac fibroblasts were cultivated according to standard culture protocols for these cells (Cristofalo, et al., Journal of Tissue Culture Methods 1980, 6:117-121). Parallel sets of cultures were maintained in normal growth media or in normal growth media with the addition of 1 nM rapamycin. Cultures were maintained with 1 nM rapamycin (Enzo Biologicals) for two weeks before exposure to NRTIs. Cell cultures were exposed to NRTIs at indicated concentrations in individual experiments (generally 10-20 μg/ml) for 7 days, with a change of media and fresh NRTIs at day 4. Mitochondrial measurements, bioanalyzer measurements, immunoblotting for protein expression and phosphorylation status, and assays for senescence were performed at the end of this 7-day period.
Cell culture reagents were from Cellgro, unless indicated. WI-38 fetal-lung primary human fibroblasts or human cardiac fibroblasts were grown in MEM supplemented with 10% fetal bovine serum, 1% L-glutamine, MEM vitamins, and MEM non-essential amino acids. Cells were maintained in a 37° C. in 5% CO2 incubator. For treatment studies, cells were treated with 1 nM rapamycin (Enzo Biologicals) for two weeks before treatment with NRTIs. […]

human fibroblasts = test: Long-term culture of human fibroblasts with or without rapamycin (lifespan, organization, p21 and IL-6 expression); type: cell-based
Procedure: FIG. 13 is a graph illustrating the finding that rapamycin treatment provides lifespan extension in human fibroblasts. Human fibroblast cells were growth in culture medium with or without rapamycin (1 nM). Cultures were split every 7 days and reseeded at identical cell number/cm^2 each week. The lifespan of normal human fibroblasts is counted by the number of times that the cells double.
FIG. 14 illustrates the finding that rapamycin preserves cell organization during aging of human fibroblasts. […] The ability to organize is a critical element of normal fibroblast function and contributes to tissue integrity in normal tissue. The disorganization which occurs with age contributes to functional decline.
FIG. 17 is a bar graph illustrating the finding that rapamycin prevents the expression of genes that cause senescence. The p21 gene makes a protein that is critical for senescence of human fibroblasts.
FIG. 18 is a bar graph illustrating the finding that rapamycin prevents the expression of genes related to inflammation. The IL-6 gene makes a protein that activates the immune system to recruit immune cells into an area of tissue damage.
as §1

[2] = system: dermal atrophy and actinic keratosis; test: Single site open label study, topical application in a patient; type: in vivo, human; conditions: 14 days of rapamycin treatment in an emulsified gel preparation, digital caliper
Procedure: In certain embodiments, dermal atrophy is evaluated by measurement of the dermal layer utilizing a calibrated digital caliper measurement of the dermal layer. In other embodiments, improvement in seborrheic keratosis, lentigines, pseudoscars, coarse wrinkles, and epidermal thickening is evaluated through an investigator evaluation rating scale of 1-4, in which 1 is normal with no sign of lesion; 2 represents minor lesions; 3 represents lesions that are distinct features relative to normal skin; and 4 represents lesions that are of high severity. […] In yet other embodiments, lesions are evaluated by area measurement using manual measurement of the lesion or through analysis of images taken by investigators or research study staff.
Patients presenting to a physician with a diagnosis of dermal atrophy, seborrheic keratosis, actinic keratosis, lentigines, senile pseudoscars, or coarse wrinkles were selected for administration of a composition of the invention. Dermal thickness was quantified using a Mitoutoyo digital caliper with certified accuracy to 0.001 mm. […]
A single site open label study was performed. A patient presenting with an area of dermal atrophy and actinic keratosis on the hand was evaluated for application of Formulation R. the contralateral hand with similar dermal thickness but no actinic keratosis was used as a control. […]

[3] = cells grown in the presence of rapamycin

Structure (SMILES): CO[C@H]1C[C@@H]2CC[C@@H](C)[C@@](O)(O2)C(=O)C(=O)N2CCCC[C@H]2C(=O)O[C@H]([C@H](C)C[C@@H]2CC[C@@H](O)[C@H](OC)C2)CC(=O)[C@H](C)/C=C(\C)[C@@H](O)[C@@H](OC)C(=O)[C@H](C)C[C@H](C)/C=C/C=C/C=C/1C [rapamycin]
- basal respiration ([1]; rapamycin-treated (1 nM) vs standard culture): significantly lower
- basal respiration when exposed to NRTIs ([1]; rapamycin-treated cells (1 nM)): did not exhibit an increase
- maximal respiration when exposed to NRTIs ([1]; rapamycin-treated cells (1 nM)): did not exhibit an increase
- proton leak following exposure to NRTIs ([1]; rapamycin-treated cells (1 nM)): did not exhibit an increase
- ATP-linked respiration ([1]; rapamycin-treated cultures (1 nM)): reduced
- effect of rapamycin treatment on NRTI-induced senescence markers (Lung fibroblasts): protection
- IL-6 expression as cells age (human fibroblasts; [3]): do not produce IL-6
- p21 expression as cells age (human fibroblasts; [3]): do not produce p21
- cell organization during aging (human fibroblasts; low doses of rapamycin): maintained an orderly growth pattern
- replicative lifespan (number of times that the cells double) (human fibroblasts; rapamycin 1 nM in culture medium): extend replicative lifespan; also recorded: well beyond the normal lifespan
- dermal thickness in atrophic skin [2]: increases dermal thickness
